The results in this text go back to ChEMBL document CHEMBL1201862, “PubChem BioAssay data set” (2004).

Among the test systems are A498; A549; ACHN; COLO 205; DLD-1; Malme-3M; NCI-H522; SN12C; SW-620; U-251; UACC-257; LOX IMVI; RPMI-8226; Hs-578T; MCF7; MDA-MB-231; MDA-MB-435; NCI/ADR-RES; PC-3; T47D.
Holding throughout (test): growth of human tumour cells (NCI), 48 h

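Compound exposure: 48 hours, 5 concentrations, 96-well plates. Here, GI50 denotes the concentration required for 50% inhibition of growth.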 Activity calls are given as the source filed them. No stated cut-off is given here; in the data, active = GI50 up to about 1.1 µM and inactive = higher.

Regarding `CN(C(=O)C12C3(C(=O)C(C)(C)C)C4C5(C#N)C3C1(C(=O)C(C)(C)C)C5C42C(=O)C(C)(C)C)C(C)(C)C` (stereo unspecified), the GI50 with A498 was > 50 µM (inactive); in the experiment on A549, > 50 µM (inactive); in the experiment on ACHN, 25.2 µM (inactive); with COLO 205, > 50 µM (inactive); in the experiment with DLD-1, 35.3 µM (inactive); with Malme-3M it was > 50 µM (inactive). For the same compound, the GI50 was 14.5 µM (inactive) in the experiment on NCI-H522; > 50 µM (inactive) with SN12C; > 50 µM (inactive) in the experiment on SW-620; > 50 µM (inactive) in the experiment on U-251; 19.6 µM (inactive) with UACC-257.
With `C=C(CO)CC(O)c1ccccc1` (stereo unspecified), the GI50 with A498, in the experiment with A549, in the experiment with ACHN, in the experiment on COLO 205, in the experiment on DLD-1 and in the experiment on LOX IMVI was > 100 µM (inactive) each time. Further, the GI50 in the experiment on NCI-H522, in the experiment on RPMI-8226, in the experiment on SN12C, with SW-620 and with U-251 was > 100 µM (inactive) in each case.
On to `COc1ccccc1NC(=O)C1=C(C)NC(C)=C(C(=O)Nc2ccccc2OC)C1c1ccc(C(C)C)cc1`, for which the GI50 in the experiment on A498 was > 100 µM (inactive); in the experiment on A549, 40.1 µM (inactive); in the experiment with ACHN, 65.9 µM (inactive); in the experiment with COLO 205, > 100 µM (inactive); with DLD-1 it was > 100 µM (inactive); in the experiment with LOX IMVI, > 100 µM (inactive). The GI50 in the experiment on Malme-3M was 67.6 µM (inactive); in the experiment on RPMI-8226, 7.38 µM (inactive); in the experiment on SN12C it was > 100 µM (inactive); with SW-620, > 100 µM (inactive); in the experiment on U-251, 84.3 µM (inactive); in the experiment with UACC-257, 45.2 µM (inactive).
Turning to `CN1C(=O)C2C(C1=O)C1(O)c3ccccc3C2(N)c2ccccc21` (stereo unspecified), the GI50 with A498 was 35.2 µM (inactive); in the experiment with A549, > 100 µM (inactive); in the experiment on ACHN it was > 100 µM (inactive); with COLO 205 it was > 100 µM (inactive); with DLD-1, > 100 µM (inactive); with LOX IMVI, > 100 µM (inactive). Further, the GI50 with Malme-3M, with SN12C, in the experiment on SW-620, in the experiment on U-251 and in the experiment with UACC-257 was > 100 µM (inactive) each time.
As for `CS(=O)(=O)N(N(CCCl)S(=O)(=O)c1ccccc1)S(C)(=O)=O`, the GI50 with A549, in the experiment with ACHN, in the experiment on COLO 205, in the experiment on DLD-1, in the experiment on Malme-3M and in the experiment on NCI-H522 was > 100 µM (inactive) each time. For the same compound, the GI50 in the experiment on RPMI-8226 was > 100 µM (inactive); in the experiment on SN12C, > 100 µM (inactive); with SW-620, > 100 µM (inactive); in the experiment with U-251 it was 17.7 µM (inactive); with UACC-257, > 100 µM (inactive).
Consider `O=C1C(c2ccccc2)=C(c2ccccc2)C(c2ccc(CCCCCCc3ccc(C4=C(c5ccccc5)C(=O)C(c5ccccc5)=C4c4ccccc4)cc3)cc2)=C1c1ccccc1`, for which the GI50 with A549, with ACHN, in the experiment on COLO 205, in the experiment with DLD-1, with Malme-3M and with NCI-H522 was > 100 µM (inactive) throughout. The GI50 in the experiment on RPMI-8226 is > 100 µM (inactive); with SN12C it was > 100 µM (inactive); in the experiment with SW-620, > 100 µM (inactive); with U-251, 64.6 µM (inactive); in the experiment with UACC-257, > 100 µM (inactive).
As to `O=C(c1cc2c(C(F)(F)F)onc2c2ccccc12)C(F)(F)F`, the GI50 was 12.7 µM (inactive) in the experiment on A498; 4.51 µM (inactive) in the experiment on A549; 2.89 µM (inactive) in the experiment on ACHN; 3.08 µM (inactive) in the experiment with COLO 205; 0.484 µM (active) in the experiment with DLD-1; 1.63 µM (inactive) with LOX IMVI. Also, the GI50 is 1.78 µM (inactive) with NCI-H522; 0.935 µM (active) in the experiment on RPMI-8226; 0.614 µM (active) in the experiment on SN12C; 2.68 µM (inactive) with SW-620; 0.371 µM (active) in the experiment on U-251; 5.61 µM (inactive) in the experiment on UACC-257.
`CC(=O)OCCOCNC(=S)N/N=C/c1ccc([N+](=O)[O-])o1`: the GI50 was > 100 µM (inactive) with A498; 63.5 µM (inactive) in the experiment on A549; 60.5 µM (inactive) with ACHN; 15 µM (inactive) with COLO 205; 53.1 µM (inactive) in the experiment with DLD-1; 31.6 µM (inactive) with LOX IMVI. The GI50 was 94.8 µM (inactive) in the experiment with Malme-3M; 64.4 µM (inactive) in the experiment with NCI-H522; 74.5 µM (inactive) in the experiment with SN12C; 34.5 µM (inactive) with SW-620; 83.9 µM (inactive) in the experiment with U-251; 34.4 µM (inactive) with UACC-257.
As to `O=C1c2cc3c(cc2[C@@H]2NC4CCCC14O2)OCO3` (stereo partly specified), the GI50 with A498, in the experiment with A549, in the experiment on ACHN, with DLD-1, in the experiment with NCI-H522 and with SN12C was > 100 µM (inactive) in each case. Moreover, the GI50 in the experiment on SW-620, in the experiment with U-251 and in the experiment with UACC-257 was > 100 µM (inactive) throughout.
Consider `CC[C@@H]1NC(C(=O)OC)Cc2c1[nH]c1ccccc21` (stereo partly specified), for which the GI50 in the experiment with A498, with A549, in the experiment on ACHN, in the experiment with COLO 205, in the experiment on DLD-1 and with LOX IMVI was > 100 µM (inactive) throughout. Besides, the GI50 in the experiment with Malme-3M, in the experiment on SN12C, with SW-620, in the experiment with U-251 and in the experiment on UACC-257 was > 100 µM (inactive) in each case.
In the case of `COC(=O)c1ccc(OCc2ccc3nc(OC)c(OC)nc3c2)cc1`, the GI50 in the experiment with A549, in the experiment on ACHN, with COLO 205, in the experiment with DLD-1, in the experiment with LOX IMVI and in the experiment with Malme-3M was > 100 µM (inactive) throughout. The GI50 is 34 µM (inactive) in the experiment with NCI-H522; > 100 µM (inactive) in the experiment on RPMI-8226; > 100 µM (inactive) in the experiment on SN12C; > 100 µM (inactive) in the experiment with SW-620; 49.1 µM (inactive) in the experiment with U-251; > 100 µM (inactive) in the experiment on UACC-257.
As for `Cc1[nH]c2ccccc2c1C1Cc2ccccc2N1C(=O)C#Cc1ccc([N+](=O)[O-])cc1` (stereo unspecified), the GI50 in the experiment with A498, with A549, with ACHN, in the experiment with DLD-1, in the experiment on LOX IMVI and with Malme-3M was > 100 µM (inactive) throughout. In addition, the GI50 in the experiment on RPMI-8226 is 76 µM (inactive); in the experiment with SN12C, > 100 µM (inactive); in the experiment on SW-620, > 100 µM (inactive); in the experiment on U-251, > 100 µM (inactive); in the experiment with UACC-257 it was > 100 µM (inactive).
On to `CC1Cc2c(Br)nc(N)nc2NC1=O` (stereo unspecified), for which the GI50 in the experiment with A498, in the experiment on A549, in the experiment with ACHN, with COLO 205, in the experiment on Hs-578T and with LOX IMVI was > 100 µM (inactive) in each case. In addition, the GI50 in the experiment on MCF7, in the experiment with MDA-MB-231, in the experiment on MDA-MB-435, in the experiment on Malme-3M, with NCI-H522 and in the experiment with NCI/ADR-RES was > 100 µM (inactive) each time. Besides, the GI50 with PC-3, with RPMI-8226, in the experiment with SN12C, in the experiment with SW-620, in the experiment on T47D and in the experiment on U-251 was > 100 µM (inactive) each time. For the same compound, in the experiment on UACC-257, the GI50 was > 100 µM (inactive).
Consider `C[C@]12CC[C@H]3[C@@H](CCC4=CC(=O)CC[C@@H]43)[C@@H]1CC[C@@H]2OC1(O)C(=O)c2ccccc2C1=O`, for which the GI50 was 48.5 µM (inactive) with A498; > 100 µM (inactive) with A549; 27.7 µM (inactive) in the experiment on ACHN; 24.4 µM (inactive) in the experiment with COLO 205; 11.2 µM (inactive) in the experiment with Hs-578T; 37.5 µM (inactive) with LOX IMVI. For the same compound, the GI50 was 30.8 µM (inactive) in the experiment with MCF7; 87.3 µM (inactive) in the experiment with MDA-MB-231; 32.7 µM (inactive) in the experiment on MDA-MB-435; 34 µM (inactive) in the experiment on Malme-3M; 17.3 µM (inactive) with NCI-H522; 63 µM (inactive) in the experiment on NCI/ADR-RES. For the same compound, the GI50 is 60.5 µM (inactive) in the experiment with PC-3; 26.2 µM (inactive) with RPMI-8226; 17 µM (inactive) in the experiment with SN12C; 40.6 µM (inactive) in the experiment on SW-620; 36.7 µM (inactive) with T47D; 48.8 µM (inactive) with U-251. The GI50 in the experiment with UACC-257 is 28.5 µM (inactive).
`Cc1c(Cl)ccc2c1NC(=O)C2(O)CC(=O)c1ccc(Cl)cc1Cl` (stereo unspecified): the GI50 was 16.2 µM (inactive) with A498; > 50 µM (inactive) with A549; 36.7 µM (inactive) in the experiment with ACHN; > 50 µM (inactive) in the experiment with COLO 205; 12.9 µM (inactive) in the experiment on Hs-578T; > 50 µM (inactive) in the experiment with LOX IMVI. For the same compound, the GI50 in the experiment with MCF7 is > 50 µM (inactive); in the experiment with MDA-MB-231, 30.5 µM (inactive); with MDA-MB-435, > 50 µM (inactive); in the experiment with Malme-3M, > 47.9 µM (inactive); with NCI-H522, > 50 µM (inactive); in the experiment with NCI/ADR-RES it was > 50 µM (inactive). Further, the GI50 was > 50 µM (inactive) in the experiment with PC-3; > 41 µM (inactive) in the experiment with RPMI-8226; > 50 µM (inactive) in the experiment on SN12C; > 50 µM (inactive) with SW-620; > 50 µM (inactive) in the experiment with T47D; 22.6 µM (inactive) with U-251. Further, the GI50 in the experiment on UACC-257 was > 50 µM (inactive).
